According to US8927580B2, “Thiosemicarbazone compounds and use in the treatment of cancer” (Oncochel Therapeutics LLC, priority 2010, dated 2015):

Assays:
[1] = tested on: PANC 1 pancreatic cancer cells; assay: MTT proliferation assay, PANC 1; assay type: cell-based; conditions: Homo sapiens; PANC 1, MTT, 72 h
Protocol: (§1) The pancreatic cancer cell lines, including MIAPaCa-2, PANC 1, CAPAN-2 and CFPAC-1 were a generous gift from Prof. Andrew Biankin (Garvan Institute, NSW, Australia). The MIAPaCa-2, PANC 1 and CFPAC-1 cell lines were grown in DMEM medium (Invitrogen) and CAPAN-2 cells were grown in McCoy's medium (Invitrogen). All media was supplemented with 10% (v/v) fetal calf serum (Invitrogen), 1% (v/v) non-essential amino acids (Invitrogen), 1% (v/v) sodium pyruvate (Invitrogen), 2 mM L-glutamine (Invitrogen), 100 μg/mL of streptomycin (Invitrogen), 100 U/ml penicillin (Invitrogen), and 0.28 μg/mL of fungizone.
(§2) To further examine the spectrum of anti-proliferative activity, Dp4cycH4mT was tested against pancreatic cancer in vitro, performing MTT proliferation assays with PANC 1, MIAPaCa-2, CFPAC-1 and CAPAN-2 pancreatic cancer cells. As a comparison, currently used treatments for pancreatic cancer including gemcitabine and 5-fluorouracil were also tested. The iron chelator, DFO, was included as a positive control.
(§3) Table 2A. Anti-proliferative activity of Dp4cycH4mT against pancreatic cancer cell lines. Growth and antiproliferative activity IC50 (μM) values of Dp4cycH4mT in a variety of pancreatic cell lines and in comparison to DFO and the clinically used drugs gemcitabine and 5-fluorouracil as determined by the MTT assay. Cells were seeded and allowed to attach to wells for 24 h and then incubated for 72 h at 37° C. with control medium or the chelators. Results are mean±SD (3 experiments).
as §3, with “2B.” for “2A.”, “IC90” for “Growth and antiproliferative activity IC50”

p21 = assay: Western blot analysis, p21 expression; assay type: cell-based; conditions: MIAPaCa-2 cells
Protocol: Western analysis was performed via established protocols (Gao, J. and D. R. Richardson (2001). Blood 98: 842-50). The primary antibodies used were against NDRG1 (Abcam; UK), p21, cyclin D1, transferrin receptor 1 (TfR1; Santa Cruz, CA, USA) and β-actin (Sigma-Aldrich), with secondary HRP-conjugated goat and mouse antibodies (Sigma-Aldrich).
Dp4cycH4mT was examined to determine whether it could up-regulate NDRG-1 expression. To further evaluate the effect of the chelator Dp4cycH4mT on other key molecules involved in cell cycle progression, the expression of the cyclin-dependent kinase inhibitor, p21, as well as cyclin D1 in MIAPaCa-2 cells was also examined.

methemoglobin (metHb) = assay: metHb formation in vivo; design: species or system C57BL6 mice; conditions: 6 mg/kg intravenously, blood taken after 30 min
Protocol: FIG. 13. Effect of thiosemicarbazone chelators on metHb-formation in vivo. MetHb after Dp44mT, Triapine® or Dp4cycH4mT treatment in vivo at a dose of 6 mg/kg administered intravenously via the tail vein. Mice in the control group were treated with vehicle alone. At 30 minutes post-administration, whole blood was collected for determination of metHb levels.
The levels of metHb and metMb in RBC lysates were determined using a Shimadzu UV-Vis spectrophotometer (UV-1800; Shimadzu Corporation, Kyoto, Japan) at 577 nm and 630 nm for metHb and metMb in accordance with published methods (Winterbourn CC and Carrell R W (1977). Biochem J 165: 141-148).
C57BL6 mice (7-8 weeks-old) were used under a protocol approved by the university of Sydney Animal Ethics Committee. Dp44mT, Triapine® or Dp4cycH4mT (all at 6 mg/kg) were dissolved in 30% propylene glycol/saline and administered iv via the tail vein. Subsequently, 30 min after administration, mice were anesthetized with isoflurane and blood samples obtained by cardiac puncture. Blood samples were lysed with 2.5 volumes of ultrapure water for metHb estimation. Mice were sacrificed with isoflurane, the heart exhaustively perfused with HBSS and Mb isolated.

[2] = tested on: pancreatic cancer cell lines; assay: MTT proliferation assays, pancreatic cancer cell line panel (comparison of IC50); assay type: cell-based; conditions: in 2 out of the 4 cell types
Protocol: as §1, §2
Table 2A. Anti-proliferative activity of Dp4cycH4mT against pancreatic cancer cell lines. […]. Cells were seeded and allowed to attach to wells for 24 h and then incubated for 72 h at 37° C. with control medium or the chelators. Results are mean±SD (3 experiments).

[3] = tested on: SK-N-MC neuroepithelioma cells; assay: Iron efflux assay (59Fe release from pre-labeled cells); assay type: cell-based, human; conditions: 25 μM chelator, 3 h at 37° C.
Protocol: The culture dishes were then placed on ice, the supernatant containing excess ^59Fe-Tf was aspirated and the cells washed 4 times with ice-cold PBS. […] After 3 h the culture dishes were again placed on ice, the media was collected in counting tubes and this provided a measurement of released ^59Fe. Ice-cold PBS (1 mL) was added to plates containing cells and cells were scraped from the plastic surface using a Teflon spatula and also collected in counting tubes. These tubes represent the intracellular ^59Fe content. Results are expressed as total ^59Fe released as a percentage of total ^59Fe present. Radioactivity was measured using a Wallac Wizard 3″ Gamma Counter (PerkinElmer, MA, USA).

[4] = PANC 1 xenograft study: body and organ weights, haematology, histopathology
[5] = tested on: PANC 1 human pancreatic carcinoma; assay: PANC 1 xenograft in nude mice: tumour growth; assay type: in vivo, nude mice (BALBc nu/nu); conditions: Dp4cycH4mT 5 mg/kg/day i.v.
Protocol: FIG. 5). […] (5 mg/kg) or vehicle control.

[6] = tested on: CAPAN-2 pancreatic cancer cells; assay: MTT proliferation assay, CAPAN-2; assay type: cell-based; conditions: Homo sapiens; CAPAN-2, MTT, 72 h
Protocol: as §1, §2, §3
as §3, with “2B.” for “2A.”, “IC90” for “Growth and antiproliferative activity IC50”

[7] = tested on: CFPAC-1 pancreatic cancer cells; assay: MTT proliferation assay, CFPAC-1; assay type: cell-based; conditions: Homo sapiens; CFPAC-1, MTT, 72 h
Protocol: as §1, §2, §3
as §3, with “2B.” for “2A.”, “IC90” for “Growth and antiproliferative activity IC50”

[8] = tested on: MIAPaCa-2 pancreatic cancer cells; assay: MTT proliferation assay, MIAPaCa-2; assay type: cell-based; conditions: Homo sapiens, MIA PaCa-2; MIAPaCa-2, MTT, 72 h
Protocol: as §1, §2, §3
as §3, with “2B.” for “2A.”, “IC90” for “Growth and antiproliferative activity IC50”

- IC50 [1]: 50 ± 2 nM
- IC90 [1]: > 5000 nM
- metHb (% of total Hb) (methemoglobin (metHb)): comparable to the control
- IC50 fold lower compared to 5-fluorouracil [2]: ≥ 1000 fold
- IC50 fold lower compared to gemcitabine [2]: at least 100 fold
- HCT ([4]; Dp4cycH4mT 5 mg/kg/day): 0.41 ± 0.01
- Hb ([4]; Dp4cycH4mT 5 mg/kg/day): 131.88 ± 4.31 g/L
- Platelets ([4]; Dp4cycH4mT 5 mg/kg/day): 1283 ± 160 10^9/L
- RBC ([4]; Dp4cycH4mT 5 mg/kg/day): 9.46 ± 0.31 × 10^12/L
- Reticulocytes ([4]; Dp4cycH4mT 5 mg/kg/day): 0.77 ± 0.08 × 10^12/L
- WBC ([4]; Dp4cycH4mT 5 mg/kg/day): 3.5 ± 0.34 × 10^9/L
- Brain weight ([4]; Dp4cycH4mT 5 mg/kg/day i.v.): 0.30 ± 0.01 g
- Heart weight ([4]; Dp4cycH4mT 5 mg/kg/day i.v.): 0.09 ± 0.01 g
- Kidney weight ([4]; Dp4cycH4mT 5 mg/kg/day i.v.): 0.17 ± 0.02 g
- Liver weight ([4]; Dp4cycH4mT 5 mg/kg/day i.v.): 0.80 ± 0.03 g
- Spleen weight ([4]; Dp4cycH4mT 5 mg/kg/day i.v.): 0.08 ± 0.01 g
- IC50 [6]: 40 ± 8 nM
- IC90 [6]: > 5000 nM
- IC50 [7]: 400 ± 200 nM
- IC90 [7]: 5400 ± 1100 nM
- IC50 [8]: 9 ± 0.3 nM
- IC90 [8]: > 5000 nM
SMILES: CN(C(=S)NN=C(c1ccccn1)c1ccccn1)C1CCCCC1 [Dp4cycH4mT, di-2-pyridylketone 4-cyclohexyl-4-methyl-3-thiosemicarbazone]
- p21 expression (p21): markedly (p<0.05) increasing
- cellular 59Fe mobilised (59Fe released as percentage of total 59Fe) [3]: 22%
- Body weight loss (% initial weight) ([4]; Dp4cycH4mT 5 mg/kg/day i.v.): 88.0 ± 6.5 % initial weight
- Tumour weight [5]: 0.04 ± 0.01 g
